Data on 2 compounds can be found in US20150065717A1, “NIPECOTIC ACID DERIVATIVE AND USE THEREOF FOR MEDICAL PURPOSES” (Toray Industries, Inc., priority 2012, published 2015).

In assay [1] the test system is rat anti-GBM antiserum-administered nephritis model. The assay can be described thus: Pharmacological effect in rat anti-GBM antiserum-administered nephritis model. Format: in vivo, rat (Wistar-Kyoto strain). The protocol: Example Compound 1 or 2 was administered to a rat anti-GBM antiserum-administered nephritis model (Proceedings of the National Academy of Sciences of the United States of America, 2005, vol. 102, p. 7736-7741; European journal of pharmacology, 2002, vol. 449, p. 167-176), and the therapeutic effect of the nipecotic acid derivative (I) or a pharmaceutically acceptable salt thereof on chronic renal disease with glomerulonephritis and renal failure was evaluated. Rats (Wistar-Kyoto strain, male, 8 weeks old; Charles River Laboratories Japan, Inc.) with nephritis induced by administration of a rabbit anti-rat GBM antiserum prepared by methods described in documents (Proceedings of the National Academy of Sciences of the United States of America, 2005, vol. 102, p. 7736-7741; European journal of pharmacology, 2002, vol. 449, p. 167-176) into the tail vein were provided as “group with induced nephritis”. On the other hand, rats to which the anti-GBM antiserum was not administered were provided as “normal group”. Two weeks after administration of anti-GBM antiserum, blood was collected from the tail vein or jugular vein of each rat, and the sCre level was measured. The measurement of the sCre level was carried out by the enzymatic method. Two weeks after administration of anti-GBM antiserum, part of the rats were euthanized under anesthesia, and their kidneys were removed and immersed in formalin for storage. The formalin-fixed kidneys were embedded in paraffin, and sections were prepared. Pathological specimens (HE- and PAS-stained) were prepared therefrom, and histopathological examination was carried out. To rats showing pathological conditions of glomerulonephritis and renal failure in the group with induced nephritis, a suspension of Example Compound 1 in 0.5% aqueous methyl cellulose solution […] of anti-GBM antiserum until the end of the experiment. This group was provided as “Example Compound 1 (3 mg/kg)-administered group”. In addition, for comparative control, 0.5% aqueous methyl cellulose solution supplemented with 0.5% Tween 80 was similarly administered to rats in the group with induced nephritis, to provide “nephritis control group”. Similarly, 0.5% aqueous methyl cellulose solution supplemented with 0.5% Tween 80 was administered to the normal group. […] The serum Cys-C level was also measured at Week 5 after the administration of anti-GBM antiserum. The measurement of the serum Cys-C level was carried out using the antigen-antibody reaction. Five weeks after the administration of anti-GBM antiserum, the rats were euthanized under anesthesia. Kidneys were removed therefrom and immersed in formalin for storage. The formalin-fixed kidneys were embedded in paraffin, and sections were prepared. Histopathological specimens (HE- and PAS-stained) were prepared therefrom, and histopathological examination was carried out. […] The abscissa in the figure represents the number of weeks after the administration of anti-GBM antiserum, and the ordinate represents the sCre level (mean±standard error, n=6). The symbol “*” in the figure represents statistically significant difference from the nephritis control group (t-test, p<0.05). The results of histopathological examination of kidneys at Week 5 after the administration of anti-GBM antiserum are shown in FIG. 2, wherein the damaged areas in 30 to 40 glomeruli per individual were scored on a 4-point scale based on the ratio (%) of the lesion area (lesion area score: 1+, less than 25%; 2+, not less than 25% and less than 50%; 3+, not less than 50% and less than 75%; 4+, not less than 75%). Each individual corresponds to each bar, wherein the distribution of lesion area scores is shown. The ordinate in the figure represents the ratio of the lesion area score in each individual. Rats (Wistar-Kyoto strain, male, 10 weeks old; Charles River Laboratories Japan, Inc.) with glomerulonephritis induced by administration of an anti-GBM antiserum into the tail vein were provided as “group with induced nephritis”. […]

The target in a further assay is T1, recombinant human sEH (Homo sapiens, UniProt P34913).
T1 construct: purchased Cayman
T1 sequence (P34913 1-555): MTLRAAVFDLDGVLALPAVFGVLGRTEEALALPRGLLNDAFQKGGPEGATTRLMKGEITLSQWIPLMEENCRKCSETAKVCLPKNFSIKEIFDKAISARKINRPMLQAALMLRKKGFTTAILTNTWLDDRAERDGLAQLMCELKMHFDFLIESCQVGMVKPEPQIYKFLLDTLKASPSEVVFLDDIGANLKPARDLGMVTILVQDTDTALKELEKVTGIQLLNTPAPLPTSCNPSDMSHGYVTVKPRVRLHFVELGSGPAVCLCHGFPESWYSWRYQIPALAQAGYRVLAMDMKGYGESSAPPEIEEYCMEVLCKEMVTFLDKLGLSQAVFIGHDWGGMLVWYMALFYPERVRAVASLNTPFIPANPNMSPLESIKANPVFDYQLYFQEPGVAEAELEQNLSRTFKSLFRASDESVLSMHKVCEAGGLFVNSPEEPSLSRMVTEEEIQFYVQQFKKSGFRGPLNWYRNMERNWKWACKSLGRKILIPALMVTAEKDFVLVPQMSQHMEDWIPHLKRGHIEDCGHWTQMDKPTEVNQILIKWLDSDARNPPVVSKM
Put plainly: In vitro evaluation test for sEH inhibitory activity. Type of assay: biochemical. The settings on record: recombinant human sEH 0.026 μg/mL, fluorescent substrate 6.25 μmol/L, room temperature. The protocol:
According to the method described in a known document (Analytical Biochemistry, 2005, vol. 343, p. 66-75), the sEH inhibitory activity of each nipecotic acid derivative (I) or a pharmaceutically acceptable salt thereof was evaluated using human sEH.
A recombinant human sEH (final concentration, 0.026 μg/mL; Cayman) was incubated with each test compound in 25 mM Bis-Tris-HCl buffer (pH 7.0) supplemented with 0.1 mg/mL BSA at room temperature for 30 minutes. Thereafter, cyano(6-methoxynaphthalen-2-yl)methyl 2-(3-phenyloxiran-2-yl)acetate (final concentration, 6.25 μmol/L; Cayman) was added thereto as a fluorescent substrate, and the resulting mixture was incubated at room temperature for 20 minutes. The reaction was then stopped by addition of ZnSO4 (final concentration, 0.2 mol/L), and the fluorescence intensity was measured (Fusion α (Packard); Excitation: 330 nm, Emission:485 nm).
The fluorescence intensity observed with addition of neither sEH nor a test compound was regarded as the sEH enzymatic reaction rate of 0%, and the fluorescence intensity observed with addition of sEH but without addition of a test compound was regarded as the sEH enzymatic reaction rate of 100%. From the obtained fluorescence intensity, the sEH enzymatic reaction rate of each test compound was calculated to determine IC50.

Where [2] appears, read: 3 mg/kg, 5 weeks after anti-GBM antiserum, 5 animals.

Regarding `CC(C)(NS(C)(=O)=O)C(=O)N1CCC[C@@H](C(=O)NCc2ccc(C#N)cc2OC(F)(F)F)C1` [Example Compound 2, (R)—N-(4-cyano-2-(trifluoromethoxy)benzyl)-1-(2-methyl-2-(methylsulfonamido)propanoyl)piperidine-3-carboxamide], the “sCre level vs nephritis control group” value in assay [1] (10 mg/kg orally once per day from Week 2, Week 5 after anti-GBM antiserum, FIG. 3) is “remarkably lower”. Further, on recombinant human sEH, the IC50 (in general, the concentration needed to halve the response being measured) was found to be 2.1 nM.

Turning to `CCC(=O)NC1(C(=O)N2CCC[C@@H](C(=O)NCc3ccc(C#N)cc3OC(F)(F)F)C2)CCC1` [Example Compound 1, (R)—N-(4-cyano-2-(trifluoromethoxy)benzyl)-1-(1-propionamidocyclobutanecarbonyl)piperidine-3-carboxamide], the “sCre level vs nephritis control group” value in assay [1] (3 mg/kg orally once per day from Week 2, Week 3 after anti-GBM antiserum, t-test p<0.05, FIG. 1) is reported as “statistically significantly lower”. Besides, the “serum Cys-C level” value in assay [1] (3 mg/kg orally once per day from Week 2, Week 5 after anti-GBM antiserum, mean±standard error, n=6) amounted to 0.63 ± 0.08 mg/L. The “histopathological examination of kidneys, injurious changes vs nephritis control group” value in assay [1] (3 mg/kg, 5 weeks after anti-GBM antiserum) is “lower degrees and frequencies of these injurious changes”. Further, in assay [1] (setting [2]), the “Basophilic tubules, Mild” value is reported as 2 number of individuals; the “Basophilic tubules, Moderate” value is 3 number of individuals; the “Dilatation of renal tubules, Mild” value is recorded as 1 number of individuals; the “Dilatation of renal tubules, Moderate” value was 4 number of individuals. For the same compound, in assay [1] (setting [2]), the “Glomerular sclerosis, Mild” value is listed as 0 number of individuals; the “Glomerular sclerosis, Moderate” value was 5 number of individuals; the “Glomerular sclerosis, Severe” value is 0 number of individuals; the “Mild infiltration of mononuclear cells into the stroma” value is on record as 5 number of individuals. Besides, in assay [1] (setting [2]), the “Protein casts in outer medulla, Mild” value was 1 number of individuals; the “Protein casts in outer medulla, Moderate” value is on record as 4 number of individuals; the “Protein casts in outer medulla, Severe” value is reported as 0 number of individuals. The “scoring of the damaged area in glomeruli (lesion area score)” value in assay [1] (3 mg/kg, Week 5 after anti-GBM antiserum, FIG. 2) is “suppression of glomerular injury”. The IC50 at recombinant human sEH worked out at 1.1 nM.
